Experimental data taken from PMC8086025, “A benzopyran with antiarrhythmic activity is an inhibitor of Kir3.1-containing potassium channels” (The Journal of Biological Chemistry, 2021).
Where “and” joins values, the source holds several entries; their conditions need not be identical. Equal entries are not always repeated. Entries after “also recorded” stand apart in the source; their conditions may differ.

Tests used:
[1] = test system: GABA Cl- channel (GABA-gated); experiment: Radioligand binding, [35S]TBPS; parameters: species or system rat; details: 10 µM; listed as Benzopyran-G1 (SR)
Neurokinin NK1 = target: T1, Neurokinin NK1 (Homo sapiens, UniProt P25103); experiment: Radioligand binding, [125I]-Substance P LYS3, U373MG uppsala; details: read-out: % Specific Binding at 10 µM
T1 construct: endogenous in cells; host or cells: U373MG uppsala
T1 sequence (P25103 whole entry): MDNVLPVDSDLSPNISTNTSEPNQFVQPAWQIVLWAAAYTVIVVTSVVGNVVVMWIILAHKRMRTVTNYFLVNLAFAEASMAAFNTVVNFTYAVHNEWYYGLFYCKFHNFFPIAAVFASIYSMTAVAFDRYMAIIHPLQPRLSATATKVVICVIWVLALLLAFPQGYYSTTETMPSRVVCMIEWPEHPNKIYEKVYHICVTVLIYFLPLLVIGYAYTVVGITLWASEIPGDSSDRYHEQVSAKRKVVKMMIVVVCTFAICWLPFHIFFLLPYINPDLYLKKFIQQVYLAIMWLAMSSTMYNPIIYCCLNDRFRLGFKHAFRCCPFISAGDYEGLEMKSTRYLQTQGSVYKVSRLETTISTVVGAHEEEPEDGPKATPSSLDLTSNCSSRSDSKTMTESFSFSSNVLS

Nav = experiment: Radioligand binding, rat cerebral cortex
Histamine H2 = target: T2, Histamine H2 (Homo sapiens, UniProt P25021); experiment: Radioligand binding, [125I]APT; details: read-out: % Specific Binding at 10 µM
T2 construct: expressed in transfected cells; host or cells: CHO cells
T2 sequence (P25021 whole entry): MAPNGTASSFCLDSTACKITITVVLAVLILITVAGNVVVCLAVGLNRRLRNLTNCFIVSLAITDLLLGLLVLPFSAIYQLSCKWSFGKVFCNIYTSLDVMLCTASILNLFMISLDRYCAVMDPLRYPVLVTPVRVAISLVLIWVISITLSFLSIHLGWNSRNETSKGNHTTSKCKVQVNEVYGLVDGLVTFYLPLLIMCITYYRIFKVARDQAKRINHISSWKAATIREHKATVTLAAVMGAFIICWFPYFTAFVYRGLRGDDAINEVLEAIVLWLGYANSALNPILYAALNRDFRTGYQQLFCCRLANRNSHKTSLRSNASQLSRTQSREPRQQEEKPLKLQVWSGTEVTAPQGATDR

Kir3.1/2 channel = target: T3, Kir3.1/2 channel (UniProt P48542+P48549); experiment: TEVC in Xenopus oocytes, Kir3.1/2; format: cell-based, human Kir3.1, mouse Kir3.2; parameters: expressed in transfected cells; details: TEVC
T3 sequence (P48549 1-501): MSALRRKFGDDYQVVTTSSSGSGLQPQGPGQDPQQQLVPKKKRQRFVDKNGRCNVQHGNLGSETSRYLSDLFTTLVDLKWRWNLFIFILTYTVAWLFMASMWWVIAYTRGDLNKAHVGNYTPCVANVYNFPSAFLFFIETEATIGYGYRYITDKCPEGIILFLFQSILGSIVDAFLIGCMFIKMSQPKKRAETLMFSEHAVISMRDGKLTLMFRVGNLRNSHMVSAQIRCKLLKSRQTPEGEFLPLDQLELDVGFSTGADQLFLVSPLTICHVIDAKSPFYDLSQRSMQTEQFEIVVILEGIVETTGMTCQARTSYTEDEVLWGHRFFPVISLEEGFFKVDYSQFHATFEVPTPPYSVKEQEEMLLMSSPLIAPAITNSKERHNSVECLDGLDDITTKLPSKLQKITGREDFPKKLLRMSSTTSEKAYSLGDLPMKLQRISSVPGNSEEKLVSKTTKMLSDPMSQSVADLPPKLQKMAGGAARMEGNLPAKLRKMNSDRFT
T3 sequence (P48542 1-425): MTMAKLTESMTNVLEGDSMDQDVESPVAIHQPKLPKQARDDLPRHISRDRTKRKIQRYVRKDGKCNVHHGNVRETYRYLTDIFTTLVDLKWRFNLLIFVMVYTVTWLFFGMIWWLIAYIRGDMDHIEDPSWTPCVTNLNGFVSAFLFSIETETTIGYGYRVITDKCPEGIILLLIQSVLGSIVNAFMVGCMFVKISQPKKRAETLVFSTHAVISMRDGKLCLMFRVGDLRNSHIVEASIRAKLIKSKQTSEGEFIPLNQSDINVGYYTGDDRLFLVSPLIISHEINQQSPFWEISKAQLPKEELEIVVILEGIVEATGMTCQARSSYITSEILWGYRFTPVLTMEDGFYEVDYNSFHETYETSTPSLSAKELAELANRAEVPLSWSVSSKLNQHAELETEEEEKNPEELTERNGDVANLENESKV
Description: (§1) X. laevis oocytes were isolated and microinjected as previously described ([6]). Human Kir3.1, mouse Kir3.2, and human Kir3.4 DNA constructs were used for electrophysiology experiments. All cRNA constructs were injected in the amount of 2 ng per oocyte. Injected oocytes were incubated for 2 to 3 days at 18 °C to allow for expression. Whole-cell oocyte currents were then measured using a GeneClamp 500 amplifier (Axon Instruments). Microelectrodes had resistances of 0.5 to 1 megohm using a 3M KCl solution in 1.4% agarose. Oocytes were perfused with a low K^+ (LK) solution ND96 (2 mM KCl, 96 mM NaCl, 1 mM MgCl2, 1.8 mM CaCl2, 5 mM HEPES-Na) to establish a baseline for the recordings. Basal current was measured in a high potassium (HK) solution ND96K (96 mM KCl, 10 mM HEPES-K, 1 mM MgCl2, 1.8 mM CaCl2). To block the current, the oocyte chamber was perfused with 4 mM BaCl2 in ND96K. Only the Barium-sensitive current was used for statistical analysis. To measure the inhibitory activity of the channels, 1 μM BP-G1 in ND96K (HK) was used. Typically, oocytes were held at 0 mV (EK) and the current was monitored constantly using a ramp protocol with a command potential from −80 to +80 mV. Current amplitude was measured at the end of a 1 s sweep. All currents were analyzed when they reached steady state. Error bars in the figures represent SD (N > 4).

Ca = experiment: Radioligand binding; details: listed as Benzopyran-G1 (SR)
5-HT2A = target: T4, 5-HT2A (Homo sapiens, UniProt P28223); experiment: Radioligand binding, [3H]ketanserin; details: read-out: % Specific Binding at 10 µM
T4 construct: expressed in transfected cells; host or cells: HEK-293 cells
T4 sequence (P28223 whole entry): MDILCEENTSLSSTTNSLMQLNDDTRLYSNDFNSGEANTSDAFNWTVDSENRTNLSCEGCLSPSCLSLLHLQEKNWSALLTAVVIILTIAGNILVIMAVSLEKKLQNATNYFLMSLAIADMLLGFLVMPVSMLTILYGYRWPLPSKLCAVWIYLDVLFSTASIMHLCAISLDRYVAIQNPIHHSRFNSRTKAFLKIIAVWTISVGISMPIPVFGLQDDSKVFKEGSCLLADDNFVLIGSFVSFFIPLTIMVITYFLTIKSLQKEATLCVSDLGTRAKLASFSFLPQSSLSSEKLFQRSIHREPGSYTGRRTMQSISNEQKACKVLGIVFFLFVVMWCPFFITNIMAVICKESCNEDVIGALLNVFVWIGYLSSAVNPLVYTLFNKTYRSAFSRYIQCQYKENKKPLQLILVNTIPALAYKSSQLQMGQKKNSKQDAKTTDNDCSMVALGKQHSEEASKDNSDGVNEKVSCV

Opioid Kappa = target: T5, Opioid Kappa (Rattus norvegicus, UniProt P34975); experiment: Radioligand binding, [3H]U 69593; details: read-out: % Specific Binding at 10 µM
T5 construct: expressed in transfected cells; host or cells: CHO cells
T5 sequence (P34975 whole entry): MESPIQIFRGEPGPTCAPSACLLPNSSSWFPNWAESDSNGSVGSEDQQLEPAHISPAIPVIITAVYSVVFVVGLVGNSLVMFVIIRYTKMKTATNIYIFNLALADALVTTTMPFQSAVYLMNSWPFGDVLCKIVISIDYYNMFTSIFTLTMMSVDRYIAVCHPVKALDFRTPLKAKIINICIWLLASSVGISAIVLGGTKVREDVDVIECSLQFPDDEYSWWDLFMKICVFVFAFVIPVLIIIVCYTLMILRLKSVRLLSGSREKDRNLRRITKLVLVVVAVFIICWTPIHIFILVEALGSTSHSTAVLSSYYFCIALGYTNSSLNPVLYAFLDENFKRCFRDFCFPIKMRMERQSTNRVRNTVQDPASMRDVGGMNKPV

Kir3.1/4 channel = target: T6, Kir3.1/4 channel (Homo sapiens, UniProt P48544+P48549); experiment: TEVC in Xenopus oocytes, Kir3.1/4; format: cell-based; parameters: expressed in transfected cells; host or cells: Xenopus laevis oocytes (cRNA injection); details: 1 μM, TEVC
T6 sequence (P48549 1-501): T3 sequence (P48549 1-501)
T6 sequence (P48544 1-419): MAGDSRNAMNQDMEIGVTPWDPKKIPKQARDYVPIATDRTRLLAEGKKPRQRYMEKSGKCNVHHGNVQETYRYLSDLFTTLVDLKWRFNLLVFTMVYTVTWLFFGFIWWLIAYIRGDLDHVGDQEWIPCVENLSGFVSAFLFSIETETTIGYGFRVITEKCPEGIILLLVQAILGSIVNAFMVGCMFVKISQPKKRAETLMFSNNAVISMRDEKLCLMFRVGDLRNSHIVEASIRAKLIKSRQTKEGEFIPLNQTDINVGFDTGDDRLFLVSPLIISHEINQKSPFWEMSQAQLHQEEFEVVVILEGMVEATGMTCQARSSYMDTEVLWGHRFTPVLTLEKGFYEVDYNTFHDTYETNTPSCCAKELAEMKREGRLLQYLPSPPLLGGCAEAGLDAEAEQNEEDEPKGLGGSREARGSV
Description: as §1

[2] = target: T7, Non-steroid nuclear receptors PPARγ (Homo sapiens, UniProt P37231); experiment: Radioligand binding, [3H]rosiglitazone; details: read-out: % Specific Binding at 10 µM
T7 construct: purchased; host or cells: E. coli
T7 sequence (P37231 whole entry): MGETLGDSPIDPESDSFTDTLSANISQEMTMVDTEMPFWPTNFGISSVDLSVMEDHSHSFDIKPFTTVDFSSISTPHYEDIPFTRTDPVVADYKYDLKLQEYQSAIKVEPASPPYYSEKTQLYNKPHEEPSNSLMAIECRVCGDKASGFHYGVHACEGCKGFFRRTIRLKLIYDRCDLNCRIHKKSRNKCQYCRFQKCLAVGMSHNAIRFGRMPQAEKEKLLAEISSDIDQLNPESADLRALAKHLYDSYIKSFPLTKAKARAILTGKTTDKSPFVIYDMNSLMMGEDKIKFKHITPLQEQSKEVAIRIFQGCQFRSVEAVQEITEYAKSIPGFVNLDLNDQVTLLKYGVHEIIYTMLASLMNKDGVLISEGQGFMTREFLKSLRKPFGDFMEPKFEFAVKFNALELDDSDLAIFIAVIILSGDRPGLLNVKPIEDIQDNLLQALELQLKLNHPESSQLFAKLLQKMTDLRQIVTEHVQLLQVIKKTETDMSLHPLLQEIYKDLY

IKACh = experiment: In vivo ECG, carbachol-induced heart rate slowing in anesthetized mice
Description: We tested the in vivo effects of BP-G1 versus those of BP-G1(SR) on heart rate in anesthetized adult mice (Fig. 8). ECG was continuously recorded. Panel A is the ECG showing that after carbachol (300 μl of 200 μM) was administered, i.p. (red mark), the heart decelerated, with a visible RR prolongation. About 10 min after carbachol injection, BP-G1 was delivered via the jugular vein (40 μl of 240 μM) (green mark). Within 5 min, there was a reversal of carbachol’s effects on the heart rate. Panel B is a control mouse showing heart rate slowing after carbachol administration (red mark).
Mice were anesthetized (1.5% isofluorane), and a 1.2 French octapolar catheter (Millar) with a drug delivery port was placed transvenously, through the jugular vein, into the right atrium. Continuous ECG was recorded using the Animal Bio Amp and PowerLab 4/35 Advanced Instruments apparatus. […] Saline control at the same volume was performed. Results are averages ±SD.

Dopamine transporter = target: T8, Dopamine transporter (Homo sapiens, UniProt Q01959); experiment: Radioligand binding, [3H]BTCP; details: 10 µM; read-out: % Specific Binding at 10 µM
T8 construct: expressed in transfected cells; host or cells: CHO cells
T8 sequence (Q01959 whole entry): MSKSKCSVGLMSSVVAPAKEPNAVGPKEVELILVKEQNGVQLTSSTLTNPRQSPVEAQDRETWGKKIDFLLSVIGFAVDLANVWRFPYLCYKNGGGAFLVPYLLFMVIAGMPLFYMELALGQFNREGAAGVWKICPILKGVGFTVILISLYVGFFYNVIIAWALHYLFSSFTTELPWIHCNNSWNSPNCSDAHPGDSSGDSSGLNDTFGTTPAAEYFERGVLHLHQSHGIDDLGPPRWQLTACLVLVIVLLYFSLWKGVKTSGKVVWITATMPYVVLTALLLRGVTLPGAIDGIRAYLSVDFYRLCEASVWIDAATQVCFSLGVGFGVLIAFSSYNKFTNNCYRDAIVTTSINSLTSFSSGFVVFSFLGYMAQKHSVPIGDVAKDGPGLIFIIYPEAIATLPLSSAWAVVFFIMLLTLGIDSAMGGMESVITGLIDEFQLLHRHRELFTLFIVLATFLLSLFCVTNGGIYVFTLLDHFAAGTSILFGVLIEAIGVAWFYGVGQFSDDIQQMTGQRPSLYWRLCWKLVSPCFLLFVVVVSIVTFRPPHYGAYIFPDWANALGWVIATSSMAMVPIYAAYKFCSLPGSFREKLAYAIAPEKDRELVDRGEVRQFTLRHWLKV

## Cc1cc(CO)nc2cc3c(cc12)OC(C)(C)[C@@H](O)[C@@H]3NCCc1ccccc1 [BP-G1(SR), (3S,4R)-7-(hydroxymethyl)-2,2,9-trimethyl-4-(2-phenylethylamino)-3,4-dihydropyrano[2,3-g]quinolin-3-ol]
[1]
  % Specific Binding at 10 µM: < 50%
Neurokinin NK1
  inhibition at 10 µM: 64.2%
Nav
  % Specific Binding at 10 µM: 68.800%
Histamine H2
  inhibition at 10 µM: 83.6%
Kir3.1/2 channel
  inhibitory activity on Kir3.1/2 channel: nominally inhibits; also recorded: unable to effectively inhibit
Ca
  % Specific Binding at 10 µM: 28.633% and < 50%
5-HT2A
  inhibition at 10 µM: 46.4%
Opioid Kappa
  inhibition at 10 µM: 31.3%
Kir3.1/4 channel
  inhibitory activity on Kir3.1/4 channel: nominally inhibits; also recorded: unable to effectively inhibit
[2]
  inhibition at 10 µM: 58.3%
IKACh; 40 μl of 240 μM via jugular vein, anesthetized mice, mean ± SD, N = 3
  RR interval 5 min after compound, given about 10 min after carbachol: 551.6 ± 185 ms
IKACh; 40 μl via jugular vein
  heart rate recovery after carbachol: the heart rate did not recover to baseline
Dopamine transporter
  inhibition at 10 µM: 44.6%
